pIC50: −log10 of the molar value.
Tests used:
[1] = target: Collagenase 3 (Homo sapiens, UniProt P45452); test: Inhibitory activity against matrix metallopeptidase 13
[2] = target: Disintegrin and metalloproteinase domain-containing protein 17 (Homo sapiens, UniProt P78536); test: Inhibitory activity against TACE[ADAM metallopeptidase domain 17] in isolated enzyme assay
[3] = target: T1, Interstitial collagenase (Homo sapiens, UniProt P03956); test: Inhibitory activity against matrix metallopeptidase 1
T1 sequence (P03956 whole entry): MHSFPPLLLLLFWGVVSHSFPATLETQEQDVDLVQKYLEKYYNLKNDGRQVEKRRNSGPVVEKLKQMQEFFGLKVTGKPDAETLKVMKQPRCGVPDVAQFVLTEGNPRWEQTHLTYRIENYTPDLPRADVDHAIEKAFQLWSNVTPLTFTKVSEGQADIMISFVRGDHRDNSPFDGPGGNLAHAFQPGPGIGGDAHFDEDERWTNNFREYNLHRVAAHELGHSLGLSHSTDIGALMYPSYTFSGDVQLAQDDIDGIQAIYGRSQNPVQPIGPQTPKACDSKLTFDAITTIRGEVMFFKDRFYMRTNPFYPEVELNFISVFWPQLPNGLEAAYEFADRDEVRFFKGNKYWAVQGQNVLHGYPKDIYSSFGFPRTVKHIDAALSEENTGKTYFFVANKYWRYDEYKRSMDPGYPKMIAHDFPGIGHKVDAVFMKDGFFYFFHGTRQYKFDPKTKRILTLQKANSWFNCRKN

[4] = system: THP-1; test: Percentage inhibition of TNF production in LPS-stimulated THP-1 cells; format: functional, Homo sapiens

Sequence of Disintegrin and metalloproteinase domain-containing protein 17 (P78536 whole entry, the tested form may be a part): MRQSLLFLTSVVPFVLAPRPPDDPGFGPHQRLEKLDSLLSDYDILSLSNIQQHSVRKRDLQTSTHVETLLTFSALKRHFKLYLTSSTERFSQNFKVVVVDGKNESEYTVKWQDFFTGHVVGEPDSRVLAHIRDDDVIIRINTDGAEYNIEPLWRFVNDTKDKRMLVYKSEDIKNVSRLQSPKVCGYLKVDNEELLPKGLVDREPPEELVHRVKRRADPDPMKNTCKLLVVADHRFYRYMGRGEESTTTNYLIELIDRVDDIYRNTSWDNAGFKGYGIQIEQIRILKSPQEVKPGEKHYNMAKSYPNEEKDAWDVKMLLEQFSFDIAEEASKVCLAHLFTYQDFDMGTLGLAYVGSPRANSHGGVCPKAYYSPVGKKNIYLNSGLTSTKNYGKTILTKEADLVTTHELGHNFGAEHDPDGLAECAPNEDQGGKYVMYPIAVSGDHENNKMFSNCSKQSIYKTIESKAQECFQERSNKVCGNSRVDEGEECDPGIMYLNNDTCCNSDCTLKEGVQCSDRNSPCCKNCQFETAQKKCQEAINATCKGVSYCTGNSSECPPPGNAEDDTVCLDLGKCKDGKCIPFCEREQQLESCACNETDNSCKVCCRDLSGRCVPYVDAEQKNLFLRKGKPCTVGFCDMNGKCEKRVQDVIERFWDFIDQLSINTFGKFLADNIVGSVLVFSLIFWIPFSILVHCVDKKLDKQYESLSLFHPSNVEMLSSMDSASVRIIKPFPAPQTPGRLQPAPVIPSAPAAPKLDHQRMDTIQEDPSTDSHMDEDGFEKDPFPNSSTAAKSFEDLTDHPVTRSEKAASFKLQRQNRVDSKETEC

Row | SMILES | pIC50 [1] | pIC50 [2] | further results
1 | CC#CCOc1ccc(S(=O)(=O)N2CCN(S(C)(=O)=O)CC2C(=O)NO)cc1 (configuration not stated) | 8.22 | – | –
2 | CC#CCOc1ccc(S(=O)(=O)N2CCOCC2C(=O)NO)cc1 (configuration not stated) | – | 8.30 | –
3 | CC#CCOc1ccc(S(=O)(=O)N2CCN(C(=O)OC)CC2C(=O)NO)cc1 (configuration not stated) | 8.05 | – | –
4 | CC#CCOc1ccc(S(=O)(=O)N2CCSC(C)(C)C2C(=O)NO)cc1 (configuration not stated) | – | – | pIC50 [3]: 8.15

Continued, in another order:

Row | pIC50 [1] | pIC50 [2] | SMILES | further results
5 | – | 8.52 | CC#CCOc1ccc(S(=O)(=O)N2CCSCC2C(=O)NO)cc1 (configuration not stated) | –
6 | 8.10 | – | CC#CCOc1ccc(S(=O)(=O)N2CCNCC2C(=O)NO)cc1 (configuration not stated) | Inhibition [4]: 71%

Source: ChEMBL document CHEMBL1141066, “Acetylenic TACE inhibitors. Part 2: SAR of six-membered cyclic sulfonamide hydroxamates” (Bioorg Med Chem Lett, 2005)
